Experimental data taken from patent publication US11058686B2, “5-(pyrimidin-4-yl)-2-(pyrrolidin-1-yl)nicotinonitrile compounds as IKKE, TBK1 and/or SIK2 kinases inhibitors” (DOMAINEX LIMITED, priority 2017, dated 2021).
Where two headings read alike, the source gives them in different places.

How the values were obtained:
IKKε = target: T1, IKKε (Homo sapiens, UniProt Q14164); test: IKKε enzyme potency, time-resolved fluorescence Lanthascreen kinase assay; type: biochemical; settings: IC50 at apparent Km for ATP (20 μM), 1 h reaction; read-out: Inhibition of IKKε
T1 sequence (Q14164 1-716): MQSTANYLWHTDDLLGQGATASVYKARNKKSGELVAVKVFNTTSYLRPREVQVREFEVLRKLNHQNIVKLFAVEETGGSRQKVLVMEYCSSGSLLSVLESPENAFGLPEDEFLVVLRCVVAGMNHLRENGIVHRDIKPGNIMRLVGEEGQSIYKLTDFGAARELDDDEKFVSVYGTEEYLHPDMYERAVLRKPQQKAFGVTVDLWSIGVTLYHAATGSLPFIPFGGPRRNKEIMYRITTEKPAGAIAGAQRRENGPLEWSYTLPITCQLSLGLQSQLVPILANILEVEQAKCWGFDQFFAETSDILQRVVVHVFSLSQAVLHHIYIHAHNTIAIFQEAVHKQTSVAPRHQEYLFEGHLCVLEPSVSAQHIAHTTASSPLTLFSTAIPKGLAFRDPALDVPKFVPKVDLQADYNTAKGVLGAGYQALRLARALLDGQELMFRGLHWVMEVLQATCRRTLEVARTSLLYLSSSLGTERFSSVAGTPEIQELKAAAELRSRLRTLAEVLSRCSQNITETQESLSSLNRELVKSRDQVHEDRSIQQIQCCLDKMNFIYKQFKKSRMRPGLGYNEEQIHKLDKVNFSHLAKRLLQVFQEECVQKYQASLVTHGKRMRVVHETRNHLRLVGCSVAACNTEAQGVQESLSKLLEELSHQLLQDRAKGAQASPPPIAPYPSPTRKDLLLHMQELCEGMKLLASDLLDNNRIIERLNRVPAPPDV
Procedure: (§1) Compounds of the invention (synthesised as described above), and Comparative Examples 1 to 5 (which may be synthesised as described in WO 2014/128486), were tested for potency against the IKKε and TBK1 enzyme as follows:
(§2) Inhibition studies were performed using a time-resolved fluorescence-based Lanthascreen™ assay. Phosphorylation of a fluorescein-labelled substrate peptide is measured using terbium-labeled phosphospecific antibodies. Terbium is excited at 340 nm and the FRET energy transfer to fluorescein is measured at 495 and 520 nm. The emission ratio between 520 and 495 is a measure of the level of phosphorylation of the substrate by the kinase.
(§3) Kinase inhibition assays (5 μL) were performed at 20° C. in 384-well plate format. Compound IC50 values were determined at the apparent Km for ATP (20 μM) based on a […] assay (Invitrogen) using 8 or 10 point curves in duplicate. The final reaction conditions contained 380 nM fluorescein-IkBα substrate (DRHDSGLDSMKDE) [SEQ ID No 1], 20 μM ATP, 0.9-3 nM IKKε or or 6-8 nM TBK1 kinase respectively, and 1% DMSO in kinase assay buffer consisting of 50 mM HEPES (pH 7.5), 10 mM MgCl2, 1 mM EGTA, 0.05% Brij-35.
(§4) Compound dilutions were prepared from 10 mM DMSO stocks by dilution into DMSO. Compound dilution series were further diluted in kinase assay buffer to give a 5% DMSO stock, the final concentration in the assay being 1% DMSO.
(§5) The kinase phosphorylation assay was initiated by the addition of the kinase and the reaction was allowed to proceed for 1 h or 2.5 h for IKKε and TBK1 kinase respectively. Both conditions were within the linearity of the phosphorylation. The reaction was stopped by the addition of 10 mM EDTA, and phosphorylation was detected after a 1 hour incubation with 1.5 nM terbium-labelled antibody against phosphorylation at Serine 32 on the IkBα peptide, both in TR-FRET dilution buffer (Invitrogen).

[1] = Human hepatocyte (liver cell) stability; type: in vitro ADME; settings: intrinsic clearance, cryopreserved pooled human hepatocytes, 3 μM compound, 0-60 min; for Human hepatocyte stability (μL/min/10^6 cells): Table 4; for Human Heps (μL/min/10^6 cells): Table 5, comparative examples
Procedure: Commercially available cryopreserved pooled human hepatocytes were purchased and stored in liquid nitrogen prior to use. Williams E media supplemented with 2 mM L-glutamine and 25 mM HEPES and the appropriate test compound (final substrate concentration 3 μM; final DMSO concentration 0.25%) were pre-incubated at 37° C. prior to the addition of a suspension of cryopreserved human hepatocytes (final cell density 0.5×10^6 viable cells/mL in Williams E media supplemented with 2 mM L-glutamine and 25 mM HEPES) to initiate the reaction. The final incubation volume is 500 μL. Two control compounds were included in each test alongside the vehicle control, typically verapamil and umbelliferone.
The reactions were stopped after 0 min, 5 min, 20 min, 40 min and 60 min by transferring 50 μL of the incubate to 100 μL methanol containing an internal standard. The termination plates were subsequently centrifuged at 2500 rpm at 4° C. to precipitate the protein. Following protein precipitation the sample supernatants are combined in cassettes of up to 4 compounds and analysed by LC-MS/MS conditions.
The In peak area ratio (compound peak area/internal standard peak area) was plotted against time and the gradient of the line determined. Elimination rate constant (k)=−(gradient) Half life(t1/2)(min)=0.693/k V(μL/10^6 cells)=Incubation volume (μL)/number of cells in incubation (×10^6) Intrinsic Clearance(Clint)(μL/min/million cells)=V×0.693/t1/2
If the two control compounds are not within historical specified limits then the results are rejected and the experiment repeated.

TBK1 = target: T2, TBK1 (Homo sapiens, UniProt Q9UHD2); test: TBK1 enzyme potency, time-resolved fluorescence Lanthascreen kinase assay; type: biochemical; settings: IC50 at apparent Km for ATP (20 μM), 2.5 h reaction; read-out: Inhibition of TBK1
T2 sequence (Q9UHD2 1-729): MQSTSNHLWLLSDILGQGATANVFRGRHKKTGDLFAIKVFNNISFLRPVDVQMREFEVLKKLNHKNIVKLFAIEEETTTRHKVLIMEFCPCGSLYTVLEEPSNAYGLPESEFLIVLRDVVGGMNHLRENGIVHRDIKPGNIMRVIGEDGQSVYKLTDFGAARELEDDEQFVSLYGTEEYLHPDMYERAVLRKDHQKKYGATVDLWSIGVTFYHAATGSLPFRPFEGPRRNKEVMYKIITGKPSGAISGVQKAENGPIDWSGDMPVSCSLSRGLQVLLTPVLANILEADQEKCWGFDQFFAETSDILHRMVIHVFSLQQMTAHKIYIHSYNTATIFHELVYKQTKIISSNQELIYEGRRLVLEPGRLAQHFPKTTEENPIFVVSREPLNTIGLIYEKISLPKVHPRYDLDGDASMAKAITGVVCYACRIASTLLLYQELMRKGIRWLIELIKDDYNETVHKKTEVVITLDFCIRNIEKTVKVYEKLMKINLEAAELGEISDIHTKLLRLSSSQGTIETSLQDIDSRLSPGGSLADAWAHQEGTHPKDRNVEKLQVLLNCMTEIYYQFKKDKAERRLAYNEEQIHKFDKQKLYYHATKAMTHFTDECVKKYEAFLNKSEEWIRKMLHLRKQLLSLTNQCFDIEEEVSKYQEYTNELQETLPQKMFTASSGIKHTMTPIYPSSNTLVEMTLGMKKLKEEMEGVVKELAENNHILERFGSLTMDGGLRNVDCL
Procedure: as §1, §2, §3, §4, §5

[2] = Pharmacokinetic evaluation in female Balb-C mice after intravenous administration; type: in vivo; settings: for Vd: Vd at steady state; for t½ / half-life: terminal half life in plasma (estimated); for half-life: read-out: t½ (converted)
Procedure: Pharmacokinetic evaluation was performed in female Balb-C mice. For intravenous administration (IV) compounds were typically dosed at 0.5 mg/Kg in a dose volume of 5 mL/Kg via the tail vein. Compounds were typically dosed in a vehicle of 5% DMSO/95% (Kelptose 20% w/v in phosphate buffered saline (PBS) pH 7.4). Other dosing vehicles known to those skilled in the art can also be used.
Blood samples were taken by cardiac puncture under terminal anaesthesia (isoflurane) at 8 time points between 1 minute and 10 hours following IV administration, typically 1 min, 5 min, 15 min, 30 min, 1 h, 3 h, 6 h and 10 h post dosing. In some instances 2 h, 4 h and 8 h were used for the final 3 time points due to greater convenience. N=3 animals were used per time point. Plasma was immediately obtained by centrifugation, and the resulting samples frozen until analysis. Samples, along with a calibration curve prepared by spiking the compounds into control plasma, were subsequently prepared for quantitative analysis by precipitation of the plasma proteins with acetonitrile. Analysis was by ultra-high performance liquid chromatography (Agilent 1290 system) coupled to time-of-flight mass spectrometry, using electrospray ionisation (Agilent 6550 system). Pharmacokinetic parameters were determined by non-compartmental analysis of mean concentration data using Phoenix WinNonlin v6.4
The volume of distribution (Vd) is the theoretical volume into which a drug appears to be distributed assuming it is present at the same concentration everywhere as it is in plasma.
The Vd at steady state (Vdss) is calculated by multiplying the clearance (Cl) by the mean residence time (MRT). Clearance is measured by dividing the dose by the Area under the concentration time curve. Cl=Dose/AUC0-∞ Vdss=Cl×MRT
The mean residence time is calculated by dividing the area under the second moment curve (AUMC) by the area under the concentration time curve (AUC). The second moment curve can be generated by plotting […] MRT=AUMC/AUC (ii) t1/2 in Mice (Estimated)
The compound half life (t1/2) is the time for the concentration of the drug to halve in the plasma. The terminal half life was typically estimated from the gradient of a log concentration/time plot using the last 3 points. Both the Cl and the Vd contribute to the observed half life. A larger Vd and smaller Cl gives a longer t1/2.

SIK2 = target: T3, SIK2 (Homo sapiens, UniProt Q9H0K1); test: SIK2 radiolabelled 33P-ATP Kinase HotSpot assay (Reaction Biology Corporation); type: biochemical; settings: IC50 at apparent Km for ATP (30 μM), 20 μM peptide substrate; read-out: Inhibition of SIK2
T3 construct: purchased Reaction Biology Corporation
T3 sequence (Q9H0K1 whole entry): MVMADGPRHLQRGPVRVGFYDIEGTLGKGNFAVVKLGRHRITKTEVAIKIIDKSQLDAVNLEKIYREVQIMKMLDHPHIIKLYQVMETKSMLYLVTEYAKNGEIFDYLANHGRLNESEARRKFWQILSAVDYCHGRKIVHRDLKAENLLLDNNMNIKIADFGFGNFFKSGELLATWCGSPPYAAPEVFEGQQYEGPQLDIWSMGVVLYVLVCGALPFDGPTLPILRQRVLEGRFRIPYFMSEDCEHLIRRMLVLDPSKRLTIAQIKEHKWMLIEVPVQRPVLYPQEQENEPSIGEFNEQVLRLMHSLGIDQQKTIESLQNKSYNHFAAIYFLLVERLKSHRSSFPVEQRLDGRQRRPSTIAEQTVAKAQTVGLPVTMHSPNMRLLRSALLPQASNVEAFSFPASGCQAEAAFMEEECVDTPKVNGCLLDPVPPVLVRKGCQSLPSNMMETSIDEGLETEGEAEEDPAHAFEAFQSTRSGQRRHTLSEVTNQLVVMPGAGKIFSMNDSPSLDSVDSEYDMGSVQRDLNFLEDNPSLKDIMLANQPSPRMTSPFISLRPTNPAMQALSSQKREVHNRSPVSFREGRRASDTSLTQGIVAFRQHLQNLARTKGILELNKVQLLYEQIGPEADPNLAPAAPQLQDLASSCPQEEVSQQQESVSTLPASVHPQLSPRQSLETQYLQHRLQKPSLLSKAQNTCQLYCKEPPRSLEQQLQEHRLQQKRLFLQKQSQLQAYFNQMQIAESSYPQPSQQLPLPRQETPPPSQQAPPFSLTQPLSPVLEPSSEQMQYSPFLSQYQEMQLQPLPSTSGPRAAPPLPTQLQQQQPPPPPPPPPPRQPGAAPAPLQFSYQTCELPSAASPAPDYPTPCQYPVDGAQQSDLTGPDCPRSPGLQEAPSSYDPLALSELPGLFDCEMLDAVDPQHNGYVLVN
Procedure: SIK2 was measured using radiolabelled ^33P-ATP using the Kinase HotSpot℠ technology of Reaction Biology Corporation. The peptide AMARAASAALAARRR [SEQ ID No 2] at a concentration of 20 μM was used as the substrate. IC50 values were determined at the apparent Km for ATP (30 μM)

[3] = Table 2, IV typically 0.5 mg/Kg
[4] = Table 3, comparative examples, IV typically 0.5 mg/Kg
[5] = mouse, Table 3, comparative examples, IV typically 0.5 mg/Kg
[6] = mouse, plasma, Table 3, comparative examples, IV typically 0.5 mg/Kg, read-out: Vd

Row | Compound | IC50 (IKKε) | Human hepatocyte stability (μL/min/10^6 cells) [1] | IC50 (TBK1) | Vd [2, 3] | t½ [2, 3] | Human Heps (μL/min/10^6 cells) [1] | half-life [2, 5] | also measured
1 | CN1CCN(c2ccc(Nc3nccc(-c4cnc(N5CC[C@H](F)C5)c(C#N)c4)n3)cn2)CC1 [Comp. Ex. 3] | – | – | – | – | – | 48 μL/min/10^6 cells | – | –
2 | N#Cc1cc(-c2ccnc(Nc3ccc(NC(=O)CN4CCOCC4)nc3)n2)cnc1N1CC[C@H](F)C1 [Comp. Ex. 4] | – | – | – | – | – | 6 μL/min/10^6 cells | 30 min | Vd [2, 4]: 0.54 L/kg
3 | N#Cc1cc(-c2ccnc(Nc3ccnc(NC(=O)CN4CCOCC4)c3)n2)cnc1N1CC[C@H](F)C1 [Comp. Ex. 5] | – | – | – | – | – | 6 μL/min/10^6 cells | 42 min | Vd [2, 6]: 0.7 L/kg
4 | N#Cc1cc(-c2ccnc(Nc3ccc(CN4CCOCC4)nc3)n2)cnc1N1CC[C@H](F)C1 [Comp. Ex. 1] | – | – | – | – | – | 13 μL/min/10^6 cells | 30 min | Vd [2, 6]: 0.3 L/kg
5 | N#Cc1cc(-c2ccnc(Nc3ccc(CN4CCNC(=O)C4)nc3)n2)cnc1N1CC[C@H](F)C1 [Comp. Ex. 2] | – | – | – | – | – | ≤6 μL/min/10^6 cells | – | Vd [2, 4]: 0.74 L/kg; t½ [2, 4]: 40.8 min

More lines, main results first:

Row | IC50 (IKKε) | Human hepatocyte stability (μL/min/10^6 cells) [1] | IC50 (TBK1) | Vd [2, 3] | t½ [2, 3] | Human Heps (μL/min/10^6 cells) [1] | half-life [2, 5] | Compound | also measured
6 | 0.024 µM | 7 μL/min/10^6 cells | 0.017 µM | 4.6 L/kg | 144 min | – | – | CN1CCN(Cc2ccc(Nc3nccc(-c4cnc(N5CC[C@H](F)C5)c(C#N)c4)n3)cn2)CC1 [Ex. No. 3, 2-((S)-3-Fluoro-pyrrolidin-1-yl)-5-{2-[6-(4-methyl-piperazin-1-ylmethyl)-pyridin-3-ylamino]-pyrimidin-4-yl}-nicotinonitrile] | –
7 | 0.016 µM | 11 μL/min/10^6 cells | 0.009 µM | 3.3 L/kg | 102 min | – | – | CCN1CCN(Cc2ccc(Nc3nccc(-c4cnc(N5CC[C@H](F)C5)c(C#N)c4)n3)cn2)CC1 [Ex. No. 1, 5-{2-[6-(4-Ethyl-piperazin-1-ylmethyl)-pyridin-3-ylamino]-pyrimidin-4-yl}-2-((S)-3-fluoro-pyrrolidin-1-yl)-nicotinonitrile] | IC50 (SIK2): 0.007 µM
8 | 0.021 µM | 8 μL/min/10^6 cells | 0.02 µM | 5.6 L/kg | 132 min | – | – | CCN1CCN(Cc2ccc(Nc3nccc(-c4cnc(N5CC[C@@H](F)C5)c(C#N)c4)n3)cn2)CC1 [Ex. No. 2, 5-{2-[6-(4-Ethyl-piperazin-1-ylmethyl)-pyridin-3-ylamino]-pyrimidin-4-yl}-2-((R)-3-fluoro-pyrrolidin-1-yl)-nicotinonitrile] | –
